Here are results for 3 molecules from PMC8508710, “Biochemical Characterization of 13-Lipoxygenases of Arabidopsis thaliana” (International Journal of Molecular Sciences, 2021).

Usually Km stands for the substrate concentration at which the rate is half of its maximum.

For one test, the target named is T1, LOX2 (Arabidopsis thaliana, UniProt P38418).
T1 sequence (P38418 71-896): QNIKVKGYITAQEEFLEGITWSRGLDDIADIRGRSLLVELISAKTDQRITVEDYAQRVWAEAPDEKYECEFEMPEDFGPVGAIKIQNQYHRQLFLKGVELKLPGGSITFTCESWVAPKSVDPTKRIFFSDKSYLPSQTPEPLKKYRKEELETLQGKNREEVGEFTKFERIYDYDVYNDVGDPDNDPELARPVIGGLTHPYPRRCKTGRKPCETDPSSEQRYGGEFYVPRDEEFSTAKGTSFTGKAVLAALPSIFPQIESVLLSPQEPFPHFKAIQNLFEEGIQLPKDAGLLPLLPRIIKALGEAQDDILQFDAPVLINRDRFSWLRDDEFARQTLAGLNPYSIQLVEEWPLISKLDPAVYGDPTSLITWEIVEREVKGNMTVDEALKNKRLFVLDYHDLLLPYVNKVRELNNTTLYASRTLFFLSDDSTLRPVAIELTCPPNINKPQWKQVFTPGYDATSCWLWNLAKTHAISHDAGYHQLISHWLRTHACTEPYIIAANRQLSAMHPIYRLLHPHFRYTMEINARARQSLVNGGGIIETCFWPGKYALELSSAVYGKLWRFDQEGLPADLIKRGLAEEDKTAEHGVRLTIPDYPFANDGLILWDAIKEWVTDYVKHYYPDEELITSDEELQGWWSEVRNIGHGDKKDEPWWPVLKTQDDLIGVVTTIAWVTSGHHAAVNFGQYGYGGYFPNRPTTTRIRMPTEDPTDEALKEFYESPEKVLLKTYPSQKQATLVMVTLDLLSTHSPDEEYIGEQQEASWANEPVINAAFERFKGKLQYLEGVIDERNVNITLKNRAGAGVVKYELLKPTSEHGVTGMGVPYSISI
The test is described as follows: LOX2 activity, spectrophotometric (conjugated diene formation at 234 nm).

In the next test the target is T2, LOX3 (Arabidopsis thaliana, UniProt Q9LNR3).
T2 sequence (Q9LNR3 71-919): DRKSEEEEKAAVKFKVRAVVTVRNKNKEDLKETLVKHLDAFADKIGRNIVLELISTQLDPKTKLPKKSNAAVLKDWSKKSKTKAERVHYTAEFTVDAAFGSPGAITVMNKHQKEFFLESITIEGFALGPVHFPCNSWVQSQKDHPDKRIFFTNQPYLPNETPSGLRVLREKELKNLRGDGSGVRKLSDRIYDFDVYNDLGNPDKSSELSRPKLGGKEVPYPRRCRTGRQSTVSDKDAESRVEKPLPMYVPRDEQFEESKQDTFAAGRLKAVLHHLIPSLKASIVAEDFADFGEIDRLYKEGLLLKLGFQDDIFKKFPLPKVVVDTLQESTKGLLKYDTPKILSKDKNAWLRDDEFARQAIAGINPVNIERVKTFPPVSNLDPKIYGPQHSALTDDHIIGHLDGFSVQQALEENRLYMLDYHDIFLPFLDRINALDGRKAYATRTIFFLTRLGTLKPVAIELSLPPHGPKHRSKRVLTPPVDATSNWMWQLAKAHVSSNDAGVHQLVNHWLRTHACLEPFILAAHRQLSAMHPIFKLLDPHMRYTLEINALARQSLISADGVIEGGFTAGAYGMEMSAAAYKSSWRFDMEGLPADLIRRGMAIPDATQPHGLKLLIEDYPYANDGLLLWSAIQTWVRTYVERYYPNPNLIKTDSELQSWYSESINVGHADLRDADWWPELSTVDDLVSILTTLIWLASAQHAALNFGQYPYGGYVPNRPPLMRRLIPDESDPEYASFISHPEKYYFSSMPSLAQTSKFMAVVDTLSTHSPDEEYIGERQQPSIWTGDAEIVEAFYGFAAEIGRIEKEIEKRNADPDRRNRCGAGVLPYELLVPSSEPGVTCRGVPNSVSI
As to the kind of experiment: LOX3 activity, spectrophotometric (conjugated diene formation at 234 nm).

Test [1] addresses T3, LOX4 (Arabidopsis thaliana, UniProt Q9FNX8).
T3 sequence (Q9FNX8 71-926): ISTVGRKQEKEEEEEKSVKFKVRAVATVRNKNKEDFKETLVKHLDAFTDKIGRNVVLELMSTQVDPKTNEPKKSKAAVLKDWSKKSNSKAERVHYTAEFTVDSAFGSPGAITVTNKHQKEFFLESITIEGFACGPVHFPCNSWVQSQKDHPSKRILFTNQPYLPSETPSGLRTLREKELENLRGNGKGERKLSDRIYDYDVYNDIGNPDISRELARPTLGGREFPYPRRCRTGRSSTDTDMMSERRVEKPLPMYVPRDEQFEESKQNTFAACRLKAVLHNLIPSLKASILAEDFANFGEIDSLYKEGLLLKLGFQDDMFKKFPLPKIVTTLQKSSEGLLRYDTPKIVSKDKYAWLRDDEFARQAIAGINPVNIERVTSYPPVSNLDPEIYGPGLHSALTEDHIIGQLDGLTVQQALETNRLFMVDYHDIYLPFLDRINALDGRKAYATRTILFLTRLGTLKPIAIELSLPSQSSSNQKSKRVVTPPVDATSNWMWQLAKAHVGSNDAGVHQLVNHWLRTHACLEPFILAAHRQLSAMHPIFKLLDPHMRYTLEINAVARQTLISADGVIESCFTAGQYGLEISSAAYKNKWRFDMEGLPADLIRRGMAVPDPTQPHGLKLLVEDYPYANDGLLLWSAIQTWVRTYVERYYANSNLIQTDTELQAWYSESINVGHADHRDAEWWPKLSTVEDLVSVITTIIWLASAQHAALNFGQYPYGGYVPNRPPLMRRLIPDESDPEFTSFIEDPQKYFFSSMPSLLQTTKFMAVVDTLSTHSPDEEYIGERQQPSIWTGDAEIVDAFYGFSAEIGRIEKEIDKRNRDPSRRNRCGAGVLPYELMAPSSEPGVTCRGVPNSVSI
The test is described as follows: LOX4 activity, spectrophotometric (conjugated diene formation at 234 nm).

For a further test, the target named is T4, LOX6 (Arabidopsis thaliana, UniProt Q9CAG3).
T4 sequence (Q9CAG3 41-917): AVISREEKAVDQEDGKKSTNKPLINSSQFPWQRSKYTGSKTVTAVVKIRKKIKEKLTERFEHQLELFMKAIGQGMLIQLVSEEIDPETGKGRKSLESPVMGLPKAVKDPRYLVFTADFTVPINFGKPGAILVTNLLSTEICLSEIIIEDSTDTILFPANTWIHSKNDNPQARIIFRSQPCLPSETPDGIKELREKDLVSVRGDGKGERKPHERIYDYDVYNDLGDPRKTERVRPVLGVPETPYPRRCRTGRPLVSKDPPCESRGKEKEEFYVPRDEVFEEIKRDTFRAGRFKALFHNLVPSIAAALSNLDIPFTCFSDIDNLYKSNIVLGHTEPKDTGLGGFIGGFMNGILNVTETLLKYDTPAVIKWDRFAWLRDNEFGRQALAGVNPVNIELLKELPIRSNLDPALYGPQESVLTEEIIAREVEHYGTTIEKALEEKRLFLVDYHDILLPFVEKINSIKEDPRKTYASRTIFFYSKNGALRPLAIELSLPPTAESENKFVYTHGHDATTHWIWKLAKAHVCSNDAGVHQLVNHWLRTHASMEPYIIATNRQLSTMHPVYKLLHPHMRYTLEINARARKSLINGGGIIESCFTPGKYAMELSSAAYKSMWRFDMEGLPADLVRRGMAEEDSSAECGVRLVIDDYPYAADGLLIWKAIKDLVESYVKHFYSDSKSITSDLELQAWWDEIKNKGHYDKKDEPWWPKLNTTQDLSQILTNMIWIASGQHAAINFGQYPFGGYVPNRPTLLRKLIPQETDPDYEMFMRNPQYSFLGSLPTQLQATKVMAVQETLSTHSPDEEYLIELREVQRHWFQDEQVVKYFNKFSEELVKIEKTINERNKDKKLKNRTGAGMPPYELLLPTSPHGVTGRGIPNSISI
As to the kind of experiment: LOX6 activity, spectrophotometric (conjugated diene formation at 234 nm).

For test [2], the target named is T3, LOX4. The test is described as follows: LOX4 activity, oxygen electrode (polarography). As to conditions: 1.3 mM GSH, 140 µM 12-OPDA. It is filed as biochemical. The arrangement: made in house; host or cells: E. coli Nico21(DE3), pET15b.
The mark [3] stands for this setting: substrate specificity, 31 µM PUFA, 4 µg 13-LOX, 50 mM Tris-HCl pH 7.2, LeA = 100%.
Where [4] appears, read: read-out: Km app, substrate LeA, Michaelis Menten fit, apparent.
[5] abbreviates: enzyme 0.225 µg/µL incubated 10 min 30 °C with 280 µM chemical, 4.8 µM LeA, 50 mM Tris-HCl pH 7.2, vs solvent control.

Several values for one entry are separate records, joined by “and”; a condition that tells them apart may be missing. Equal values may be shown once.

Turning to `CC/C=C\C/C=C\C/C=C\CCCCCCCC(=O)O` [LeA, α-linolenic acid], the “Maximum activity in pH profile” value at LOX2 (LeA 9.8 µM, optimal pH 6.6) is listed as 3.9 ± 0.4 nmol·s^−1·mg^−1; at LOX3 (LeA 9.8 µM, optimal pH), 50.5±2.8 nmol·s^−1·mg^−1; on LOX4 [1] (LeA 9.8 µM, optimal pH 7.2) it was 62.3 ± 0.4 nmol·s^−1·mg^−1; on LOX6 (LeA 9.8 µM, optimal pH), 1.6±0.1 nmol·s^−1·mg^−1. For the same molecule, the Km on LOX2 (read-out: Km app, substrate LeA, Michaelis Menten fit, apparent (purity and iron load not considered)) came out at 26.3 ± 2 µM; at LOX4 [1] (setting [4]) it was 5.8 µM; on LOX6 (setting [4]) it was 1200 ± 400 nM. For the same molecule, the “Relative Activity (%) LOX2” value at LOX2 (setting [3]) is 100%. Moreover, the “Relative Activity (%) LOX3” value at LOX3 (setting [3]) was 100%. Besides, the Vmax app at LOX4 [1] (substrate LeA, Michaelis Menten fit, apparent) is 128 ± 18 nmol/s/mg and 128 nmol/s/mg. Further, the “Relative Activity (%) LOX4” value at LOX4 [1] (setting [3]) amounted to 100%. For the same molecule, the “Relative Activity (%) LOX6” value at LOX6 (setting [3]) is reported as 100%.
As for `CCN1C(=O)C=CC1=O` [NEM, N-ethylmaleimide], the “Photometry Relative activity (%) LOX2” value on LOX2 (setting [5]) came to 35 ± 10%. Also, the “Photometry Relative activity (%) LOX3” value on LOX3 (setting [5]) is on record as 29 ± 10%. In addition, the “Photometry Relative activity (%) LOX4” value on LOX4 [1] (setting [5]) is on record as 3 ± 2%. On LOX6 (setting [5]), the “Photometry Relative activity (%) LOX6” value is on record as 13 ± 2%.
Take `N[C@@H](CCC(=O)N[C@@H](CS)C(=O)NCC(=O)O)C(=O)O` [GSH]: the “Protective effect on LOX4 against 12-OPDA” value on LOX4 [2] (12.2 µg LOX4) is reported as ~ 7.1%; on LOX4 [2] (doubled LOX4 concentration), ~ 11.7%.
